From PubChem BioAssay AID330 (DTP/NCI, 2004) come the findings set out here.

Where “and” joins values, the source holds several entries; their conditions need not be identical. Identical values can stand only once. Inconclusive results and toxic doses are left out. Square brackets hold non-standard residues; d marks the D form. Peptide text beside a SMILES is read from it. * marks the point of attachment. ξ: configuration not given here. Cbz = O=C(OCc1ccccc1)*; ξI = CCC(C)C(N)C(=O)O

The assay concerns P388 leukemia ip, CD2F1 mice, survival T/C. Briefly: NCI In Vivo Anticancer Drug Screen. Data for tumor model P388 Leukemia (intraperitoneal) in CD2F1 (CDF1) mice. The settings on record: endpoint: median survival time, higher = longer survival. The gist of the method:
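Mice carrying the transplanted tumor received test compound or vehicle. Survival was recorded in each group, and the value is the treated-group measurement divided by that of the vehicle-treated control group.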

[1] abbreviates: dose: 60.0 mg/kg/injection, schedule: Q01DX005 (ip), vehicle: Klucel (hydroxypropylcellulose) (HPC).
Where [2] appears, read: dose: 120.0 mg/kg/injection, schedule: Q01DX005 (ip), vehicle: Klucel (hydroxypropylcellulose) (HPC).
[3] abbreviates: dose: 240.0 mg/kg/injection, schedule: Q01DX005 (ip), vehicle: Klucel (hydroxypropylcellulose) (HPC).
Where [4] appears, read: dose: 60.0 mg/kg/injection, schedule: Q01DX005 (ip), vehicle: saline with Tween-80.
[5] abbreviates: dose: 120.0 mg/kg/injection, schedule: Q01DX005 (ip), vehicle: saline with Tween-80.
Setting [6] is: dose: 240.0 mg/kg/injection, schedule: Q01DX005 (ip), vehicle: saline with Tween-80.
Where [7] appears, read: dose: 12.5 mg/kg/injection, schedule: Q01DX009 (ip), vehicle: saline with Tween-80.
Where [8] appears, read: dose: 25.0 mg/kg/injection, schedule: Q01DX009 (ip), vehicle: saline with Tween-80.
[9] abbreviates: dose: 50.0 mg/kg/injection, schedule: Q01DX009 (ip), vehicle: saline with Tween-80.
Where [10] appears, read: dose: 100.0 mg/kg/injection, schedule: Q01DX009 (ip), vehicle: saline with Tween-80.
[11] abbreviates: dose: 400.0 mg/kg/injection, schedule: Q04DX002 (ip), vehicle: saline.
Where [12] appears, read: dose: 50.0 mg/kg/injection, schedule: Q01DX005 (ip), vehicle: Klucel (hydroxypropylcellulose) (HPC).
The mark [13] stands for this setting: dose: 100.0 mg/kg/injection, schedule: Q01DX005 (ip), vehicle: Klucel (hydroxypropylcellulose) (HPC).
Setting [14] is: dose: 200.0 mg/kg/injection, schedule: Q01DX005 (ip), vehicle: Klucel (hydroxypropylcellulose) (HPC).
Where [15] appears, read: dose: 50.0 mg/kg/injection, schedule: Q01DX009 (ip), vehicle: Klucel (hydroxypropylcellulose) (HPC).
[16] abbreviates: dose: 100.0 mg/kg/injection, schedule: Q01DX009 (ip), vehicle: Klucel (hydroxypropylcellulose) (HPC).
The mark [17] stands for this setting: dose: 200.0 mg/kg/injection, schedule: Q01DX009 (ip), vehicle: Klucel (hydroxypropylcellulose) (HPC).
Setting [18] is: dose: 50.0 mg/kg/injection, schedule: Q01DX005 (ip), vehicle: saline with Tween-80.
Where [19] appears, read: dose: 100.0 mg/kg/injection, schedule: Q01DX005 (ip), vehicle: saline with Tween-80.
Where [20] appears, read: dose: 200.0 mg/kg/injection, schedule: Q01DX005 (ip), vehicle: saline with Tween-80.

With `NC12CCC(c3ccccc31)c1ccccc12`, the T/C was 95 % of control under setting [1], 102 % of control under setting [2] and 93 % of control under setting [3].

`CC(C)C(NC(=O)C(=O)c1c[nH]c2ccc(Cl)cc12)C(=O)O` (stereo not given): the T/C by setting is: under setting [4], 100 % of control; under setting [5], 91 % of control; under setting [6], 90 % of control.

`O=C([S-])N1CCCCC1.O=C([S-])N1CCCCC1.[Ni+2]`: the T/C was 90 % of control under setting [7], 100 % of control under setting [8] and 90 % of control under setting [9].

Consider `Cc1ccc2c(NCCCCCCCCNc3c4ccccc4nc4cc(C)ccc34)c3ccccc3nc2c1`, for which the T/C (dose: 2.5 mg/kg/injection, schedule: Q01DX009 (ip), vehicle: water) is 150 % of control.

For the compound `O=C(O)C(Oc1nc(=S)[nH]c(=S)[nH]1)(c1ccc(Cl)cc1)c1ccc(Cl)cc1`, the T/C is, setting by setting: under setting [4], 103 % of control; under setting [5], 101 % of control; under setting [6], 103 % of control.

Regarding `O=S(=O)(/N=C/c1ccccc1)c1ccc(Cl)cc1`, the T/C under setting [7] was 101 % of control, the T/C under setting [8] is 101 % of control, the T/C under setting [9] was 95 % of control and the T/C under setting [10] is 96 % of control.

On to `NC(N)=NS(=O)(=O)c1ccc([N+](=O)[O-])cc1`, for which the T/C under setting [7] is 103 % of control, the T/C under setting [8] was 107 % of control and the T/C under setting [9] is 111 % of control.

With `Cc1ccc2nc(/N=C/c3ccc(N(C)C)cc3)sc2c1`, the T/C is, setting by setting: (dose: 100.0 mg/kg/injection, schedule: Q04DX003 (ip), vehicle: saline) 109 % of control; (dose: 200.0 mg/kg/injection, schedule: Q04DX003 (ip), vehicle: saline) 107 % of control; (dose: 400.0 mg/kg/injection, schedule: Q04DX003 (ip), vehicle: saline) 101 % of control.

In the case of `C=C1CC2(CC3CC(C2C)C3(C)C)OC1=O` (stereo not given), the T/C was 102 % of control (dose: 25.0 mg/kg/injection, schedule: Q04DX002 (ip), vehicle: saline); 100 % of control (dose: 50.0 mg/kg/injection, schedule: Q04DX002 (ip), vehicle: saline); 100 % of control and 90 % of control (dose: 100.0 mg/kg/injection, schedule: Q04DX002 (ip), vehicle: saline); 100 % of control under setting [11].

As for `O=CNC(Cc1ccccc1)c1ccc(OCc2ccccc2)cc1` (stereo not given), the T/C is 98 % of control under setting [12], 92 % of control under setting [13] and 87 % of control under setting [14].

`NC(=O)C(CC(C(=O)O)c1ccccc1)c1ccccc1` (stereo not given): the T/C runs as follows: (dose: 100.0 mg/kg/injection, schedule: Q01DX001 (ip), vehicle: Klucel (hydroxypropylcellulose) (HPC)) 99 % of control; (dose: 200.0 mg/kg/injection, schedule: Q01DX001 (ip), vehicle: Klucel (hydroxypropylcellulose) (HPC)) 96 % of control; (dose: 400.0 mg/kg/injection, schedule: Q01DX001 (ip), vehicle: Klucel (hydroxypropylcellulose) (HPC)) 97 % of control.

With `Cc1ccccc1NC(=O)C1C(=O)N(c2ccccc2C)C(=O)/C1=N/O` (stereo not given), the T/C is, setting by setting: under setting [4], 99 % of control; under setting [5], 97 % of control; under setting [6], 94 % of control.

For `CCN1c2ccccc2Sc2cc(C=O)ccc21`, the T/C under setting [15] was 91 % of control, the T/C under setting [16] is 107 % of control and the T/C under setting [17] is 101 % of control.

`N#Cc1nnn2c1nc(N)c1c(Cl)cccc12`: the T/C by setting is: under setting [4], 98 % of control; under setting [5], 100 % of control; under setting [6], 100 % of control.

Consider `Cc1[nH]c(C)c2c(=O)ccsc12`, for which the T/C runs as follows: under setting [4], 90 % of control; under setting [5], 99 % of control.

For `Clc1ccc(C(Cn2ccnc2)OCc2c(Cl)cccc2Cl)cc1` (stereo not given), the T/C under setting [9] was 102 % of control and the T/C under setting [10] is 97 % of control.

For `N#CC1=C(O)/C(=C\c2ccc(Cl)cc2)N=C1N`, the T/C is 88 % of control under setting [18], 91 % of control under setting [19] and 94 % of control under setting [20].

`COc1cc(C2CC(C)(O)Oc3cc4c(cc32)OCO4)cc(OC)c1OC` (stereo not given): the T/C reads like this: (dose: 30.0 mg/kg/injection, schedule: Q01DX005 (ip), vehicle: saline with Tween-80) 104 % of control; under setting [4], 105 % of control and 108 % of control.

As for `COCCOC(=O)CCn1cc(F)c(=O)[nH]c1=O`, the T/C (dose: 30.0 mg/kg/injection, schedule: Q04DX002 (ip), vehicle: saline) was 92 % of control; the T/C (dose: 60.0 mg/kg/injection, schedule: Q04DX002 (ip), vehicle: saline) was 108 % of control; the T/C (dose: 120.0 mg/kg/injection, schedule: Q04DX002 (ip), vehicle: saline) is 96 % of control; the T/C (dose: 200.0 mg/kg/injection, schedule: Q04DX002 (ip), vehicle: saline) is 91 % of control and 123 % of control; the T/C (dose: 240.0 mg/kg/injection, schedule: Q04DX002 (ip), vehicle: saline) was 96 % of control; the T/C under setting [11] was 93 % of control. Also, the T/C reads like this: (dose: 600.0 mg/kg/injection, schedule: Q04DX002 (ip), vehicle: saline) 91 % of control; (dose: 800.0 mg/kg/injection, schedule: Q04DX002 (ip), vehicle: saline) 118 % of control; (dose: 1600.0 mg/kg/injection, schedule: Q04DX002 (ip), vehicle: saline) 155 % of control.

With `COc1ccc2ccc3nonc3c2c1`, the T/C was 92 % of control under setting [18], 99 % of control under setting [19] and 91 % of control under setting [20].

For `Cc1cc(=O)oc2cc3c(cc12)CCCN3`, the T/C was 101 % of control under setting [1], 104 % of control under setting [2] and 96 % of control under setting [3].

As for `CCC(C)C(NC(=O)CNC(=O)CNC(=O)OCc1ccccc1)C(=O)O` (stereo not drawn) (Cbz-Gly-Gly-[ξI]-OH), the T/C under setting [18] is 103 % of control, the T/C under setting [19] is 100 % of control and the T/C under setting [20] is 102 % of control.

On to `COC(=O)Nc1cn2c(n1)sc1ccccc12`, for which the T/C (dose: 100.0 mg/kg/injection, schedule: Q01DX001 (ip), vehicle: saline with Tween-80) was 100 % of control; the T/C (dose: 200.0 mg/kg/injection, schedule: Q01DX001 (ip), vehicle: saline with Tween-80) was 96 % of control; the T/C (dose: 400.0 mg/kg/injection, schedule: Q01DX001 (ip), vehicle: saline with Tween-80) was 91 % of control.

On to `O=C1CCC(=O)N1CCCCCCN1C(=O)CCC1=O`, for which the T/C was 90 % of control under setting [12]; 99 % of control under setting [13]; 98 % of control under setting [14]; 89 % of control (dose: 400.0 mg/kg/injection, schedule: Q01DX005 (ip), vehicle: Klucel (hydroxypropylcellulose) (HPC)).

As to `CCCCN(CCCC)CCC(=O)c1ccc(Cl)c2ccccc12`, the T/C (dose: 25.0 mg/kg/injection, schedule: Q01DX005 (ip), vehicle: saline with Tween-80) is 97 % of control and the T/C under setting [18] was 105 % of control.

On to `COc1ccc(-c2nccc3cc(OC)c(OC)cc23)cc1OC`, for which the T/C was 100 % of control (dose: 6.25 mg/kg/injection, schedule: Q01DX009 (ip), vehicle: water); 103 % of control (dose: 12.5 mg/kg/injection, schedule: Q01DX009 (ip), vehicle: water); 106 % of control (dose: 25.0 mg/kg/injection, schedule: Q01DX009 (ip), vehicle: water); 118 % of control (dose: 50.0 mg/kg/injection, schedule: Q01DX009 (ip), vehicle: water).

`c1ccc(N=C2c3ccccc3NC2(c2ccccc2)c2ccccc2)cc1`: the T/C under setting [9] is 101 % of control and the T/C under setting [10] is 93 % of control.

Turning to `N#Cc1ccc(N2C(=O)c3ccc(C(O)(C(F)(F)F)C(F)(F)F)cc3C2=O)cc1C#N`, the T/C reads like this: under setting [15], 103 % of control; under setting [16], 103 % of control; under setting [17], 99 % of control.

Take `N#Cc1ccccc1Cl`: the T/C was 100 % of control under setting [9]; 101 % of control under setting [10]; 98 % of control (dose: 200.0 mg/kg/injection, schedule: Q01DX009 (ip), vehicle: saline with Tween-80).
